The experiment deals with T1, chimeric human H3 receptor (Homo sapiens, UniProt Q9Y5N1).
T1 construct: rat Galpha-i2 (Gnai2, rat); made in house; host or cells: Sf9 insect cells (baculovirus); P2 membranes
As to the kind of experiment: Chimeric human H3 receptor GTP binding assay (agonist-stimulated GTP-gamma35S binding, Example 7). It is filed as biochemical. From the text: This Example illustrates a representative assay for evaluating agonist-stimulated GTP-gamma^35S binding (“GTP binding”) activity. […] This agonist-stimulated GTP binding activity can also be used to detect partial agonism mediated by antagonist compounds. A compound analyzed in this assay is referred to herein as a “test compound.”
Four independent baculoviral stocks (one directing the expression of the chimeric human H3 receptor and three directing the expression of each of the three subunits of a heterotrimeric G-protein) are used to infect a culture of Sƒ9 cells as described above. P2 membranes are prepared as described above, and agonist-stimulated GTP binding on the P2 membranes is assessed using histamine (Sigma Chemical Co., St. Louis, Mo.) as agonist in order to ascertain that the receptor/G-protein-alpha-beta-gamma combination(s) yield a functional response as measured by GTP binding. P2 membranes are resuspended by Dounce homogenization (tight pestle) in GTP binding assay buffer (50 mM Tris pH 7.4, 120 mM NaCl, 5 mM MgCl2, 2 mM EGTA, 1 mg/ml BSA, 0.2 mg/ml bacitracin, 0.02 mg/ml aprotinin, 0.01 mg/ml saponin, 10 μM GDP) and added to assay tubes at a concentration of 35 μg protein/reaction tube. After adding increasing doses of histamine at concentrations ranging from 10-12 M to 10^−5 M, reactions are initiated by the addition of 125 pM GTP-gamma^35S (PERKIN ELMER; Boston, Mass.) with a final assay volume of 0.20 ml. In competition experiments, non-radiolabeled test compounds are added to separate reactions at concentrations ranging from 10^−10 M to 10^−6 M along with 1 μM histamine to yield a final volume of 0.20 ml.
Neutral antagonists are antagonists that are substantially free of inherent agonist activity, and include those test compounds that reduce the histamine-stimulated GTP binding activity towards, but not below, baseline levels. In contrast, in the absence of added histamine, inverse agonists reduce the GTP binding activity of the receptor-containing membranes below baseline.
After a 60-min incubation at room temperature, reactions are terminated by vacuum filtration over WHATMAN GF/C filters (pre-soaked in wash buffer, 0.1% BSA) followed by washing with ice-cold wash buffer (50 mM Tris pH 7.4, 120 mM NaCl). The amount of receptor-bound (and thereby membrane-bound) GTP-gamma^35S is determined by measuring the filter-bound radioactivity, preferably by liquid scintillation spectrometry of the washed filters. Non-specific binding is determined in parallel assays including 10 μM unlabeled GTP-gammaS and typically represents less than 5 percent of total binding. Data is expressed as percent above basal (baseline). The results of GTP binding experiments are analyzed using SIGMAPLOT software (SPSS Inc., Chicago, Ill.). IC50 values are calculated by non-linear regression analysis of dose-response curves using Kaleidograph (Synergy Software, Reading, Pa.).
Alternatively the data is analyzed as follows. First, the average bound radioactivity from negative control wells (no agonist) is subtracted from the bound radioactivity detected for each of the other experimental wells. Second, average bound radioactivity is calculated for the positive control wells (agonist wells). Then, percent inhibition for each compound tested is calculated using the equation: [formula]
Calculated IC50 values are converted to Ki values by the Cheng-Prusoff correction (Cheng and Prusoff (1973) Biochem. Pharmacol. 22(23):3099-3108). Accordingly, the following equation: Ki=IC50/(1+[L]/EC50) is used, where [L] is the histamine concentration in the GTP binding assay, and EC50 is the concentration of histamine producing a 50% response, as determined by a dose-response analysis using concentrations of histamine ranging from 10^−10 M to 10^−6 M. […]

Setting [1] is: P2 membranes of Sf9 cells, 1 μM histamine as agonist, read-out: Ki in the assay of Example 7.
Where [2] appears, read: P2 membranes of Sf9 cells, 1 μM histamine as agonist, Ki from IC50 by Cheng-Prusoff, read-out: Ki.
Setting [3] is: assay of Example 7, symbol "*" in column headed Ki, read-out: Ki.

Structures are written as SMILES. Like-named read-outs stand apart in the source and are kept apart here.

T1 sequence (Q9Y5N1 with tags, fused parts or gaps): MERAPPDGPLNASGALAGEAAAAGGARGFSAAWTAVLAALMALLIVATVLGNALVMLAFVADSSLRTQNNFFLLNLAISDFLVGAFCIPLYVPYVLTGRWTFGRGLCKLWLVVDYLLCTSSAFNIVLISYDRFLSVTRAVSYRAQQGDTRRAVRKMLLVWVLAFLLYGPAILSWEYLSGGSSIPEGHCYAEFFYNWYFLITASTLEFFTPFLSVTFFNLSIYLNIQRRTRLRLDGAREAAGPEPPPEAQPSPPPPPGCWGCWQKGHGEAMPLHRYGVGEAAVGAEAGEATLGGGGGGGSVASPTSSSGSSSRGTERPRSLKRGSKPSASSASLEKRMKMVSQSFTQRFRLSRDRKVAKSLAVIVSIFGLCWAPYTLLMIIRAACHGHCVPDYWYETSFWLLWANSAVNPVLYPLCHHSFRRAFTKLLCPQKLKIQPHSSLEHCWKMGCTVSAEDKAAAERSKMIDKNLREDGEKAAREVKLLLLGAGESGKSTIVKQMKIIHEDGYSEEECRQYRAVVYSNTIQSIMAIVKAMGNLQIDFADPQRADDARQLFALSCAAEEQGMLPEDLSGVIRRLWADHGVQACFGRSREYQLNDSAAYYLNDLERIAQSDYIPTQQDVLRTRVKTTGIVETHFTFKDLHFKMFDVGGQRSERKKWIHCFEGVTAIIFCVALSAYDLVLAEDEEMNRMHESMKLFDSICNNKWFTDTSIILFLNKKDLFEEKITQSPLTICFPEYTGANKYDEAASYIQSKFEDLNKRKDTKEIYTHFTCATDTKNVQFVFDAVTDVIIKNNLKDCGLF

Turning to `CC(=O)c1ccc(N2CCc3nc(N4CCN(C5CCC5)CC4)ncc3C2)cc1` [Compound 5, 1-{4-[2-(4-Cyclobutyl-piperazin-1-yl)-7,8-dihydro-5H-pyrido[4,3-d]pyrimidin-6-yl]-phenyl}-ethanone], the Ki under setting [1] was under 1000 nM. Consider `c1nc2c(c(N3CCN(C4CCC4)CC3)n1)CCN(CC1CCCCC1)CC2` [Compound 6, 4-(4-Cyclobutyl-piperazin-1-yl)-7-cyclohexylmethyl-6,7,8,9-tetrahydro-5H-pyrimido[3,4-d]azepine], for which the inhibition constant (Ki) under setting [1] is under 1000 nM. As to `CC(=O)c1ccc(N2CCc3ncnc(N4CCN(C5CCC5)CC4)c3CC2)cc1` [Compound 7, 1-{4-[4-(4-Cyclobutyl-piperazin-1-yl)-5,6,8,9-tetrahydro-pyrimido[4,5-d]azepin-7-yl]-phenyl}-ethanone], the Ki under setting [1] is under 1000 nM. As for `O=C(c1ccccc1)N1CCc2ncnc(N3CCN(C4CCC4)CC3)c2CC1` [Compound 8, [4-(4-Cyclobutyl-piperazin-1-yl)-5,6,8,9-tetrahydro-pyrimido[4,5-d]azepin-7-yl]-phenyl-methanone], the Ki under setting [1] was under 1000 nM. The same measure, in the same setting: the figure for `c1nc(N2CCN(C3CCC3)CC2)nc2c1CCN(CC1CCCCC1)CC2` [Compound 9, 2-(4-Cyclobutyl-piperazin-1-yl)-7-cyclohexylmethyl-6,7,8,9-tetrahydro-5H-pyrimido[4.5-d]azepine] is under 1000 nM. As for `CC(C)(C)N1CCN(c2ncnc3c2CCN(Cc2ccccc2)C3)CC1` [Compound 13, 7-benzyl-4-(4-tert-butylpiperazin-1-yl)-5,6,7,8-tetrahydropyrido[3,4-d]pyrimidine], the Ki under setting [2] is under 1000 nM. With `c1ccc(CN2CCc3ncnc(N4CCN(C5CCC5)CC4)c3CC2)cc1` [Compound 142, 7-benzyl-4-(4-cyclobutylpiperazin-1-yl)-6,7,8,9-tetrahydro-5H-pyrimido[4,5-d]azepine], the Ki under setting [2] was under 1000 nM. On to `CC(=O)c1ccc(OCC(=O)N2CCc3ncnc(N4CCN(C5CCC5)CC4)c3CC2)cc1` [Compound 143, 1-(4-{2-[4-(4-cyclobutylpiperazin-1-yl)-5,6,8,9-tetrahydro-7H-pyrimido[4,5-d]azepin-7-yl]-2-oxoethoxy}phenyl)ethanone], for which the inhibitory constant (Ki) under setting [2] is under 1000 nM. On the same count and under the same terms, the same measure for `c1nc2c(c(N3CCN(C4CCC4)CC3)n1)CCNCC2` [Compound 144, 4-(4-cyclobutylpiperazin-1-yl)-6,7,8,9-tetrahydro-5H-pyrimido[4,5-d]azepine]: under 1000 nM. For the compound `O=C(c1ccccc1)N1CCc2cnc(N3CCN(C4CCC4)CC3)nc2CC1` [Compound 183, 7-benzoyl-2-(4-cyclobutylpiperazin-1-yl)-6,7,8,9-tetrahydro-5H-pyrimido[4,5-d]azepine], the inhibitory constant (Ki) under setting [3] was under 1000 nM. The same measure, in the same setting: the same measure for `c1nc(N2CCN(C3CCC3)CC2)nc2c1CCN(C1CCC1)CC2` [Compound 590, 7-cyclobutyl-2-(4-cyclobutylpiperazin-1-yl)-6,7,8,9-tetrahydro-5H-pyrimido[4,5-d]azepine]: under 1000 nM; for `c1nc(N2CCN(C3CCC3)CC2)nc2c1CCN(C1CCOCC1)CC2` [Compound 591, 2-(4-cyclobutylpiperazin-1-yl)-7-(tetrahydro-2H-pyran-4-yl)-6,7,8,9-tetrahydro-5H-pyrimido[4,5-d]azepine]: under 1000 nM. On the same count and under the same terms, the figure for `FC(F)(F)CN1CCc2cnc(N3CCN(C4CCC4)CC3)nc2CC1` [Compound 592, 2-(4-cyclobutylpiperazin-1-yl)-7-(2,2,2-trifluoroethyl)-6,7,8,9-tetrahydro-5H-pyrimido[4,5-d]azepine] is under 1000 nM; for `COCCN1CCc2cnc(N3CCN(C4CCC4)CC3)nc2CC1` [Compound 593, 2-(4-cyclobutylpiperazin-1-yl)-7-(2-methoxyethyl)-6,7,8,9-tetrahydro-5H-pyrimido[4,5-d]azepine] it is under 1000 nM. The same measure, in the same setting: the same measure for `FC1(F)CCC(CN2CCc3cnc(N4CCN(C5CCC5)CC4)nc3CC2)CC1` [Compound 594, 2-(4-cyclobutylpiperazin-1-yl)-7-[(4,4-difluorocyclohexyl)methyl]-6,7,8,9-tetrahydro-5H-pyrimido[4,5-d]azepine]: under 1000 nM; for `FC(F)(F)CCN1CCc2cnc(N3CCN(C4CCC4)CC3)nc2CC1` [Compound 595, 2-(4-cyclobutylpiperazin-1-yl)-7-(3,3,3-trifluoropropyl)-6,7,8,9-tetrahydro-5H-pyrimido[4,5-d]azepine]: under 1000 nM.

For the compound `CC1CCC[C@@H]2CN(c3ncc4c(n3)CCN(C3CCC3)CC4)CCN12` (stereo partly drawn) [Compound 596, 7-cyclobutyl-2-(6-methyloctahydro-2H-pyrido[1,2-a]pyrazin-2-yl)-6,7,8,9-tetrahydro-5H-pyrimido[4,5-d]azepine], under setting [3], the Ki is under 1000 nM.

On to `CC1CCC[C@@H]2CN(c3ncc4c(n3)CCN(CC3CCOCC3)CC4)CCN12` (stereo partly drawn) [Compound 597, 2-(6-methyloctahydro-2H-pyrido[1,2-a]pyrazin-2-yl)-7-(tetrahydro-2H-pyran-4-ylmethyl)-6,7,8,9-tetrahydro-5H-pyrimido[4,5-d]azepine], for which the inhibitory constant (Ki) under setting [3] is under 1000 nM. For the compound `CCN1CCN(c2ncc3c(n2)CCN(CC2CCOCC2)CC3)CC1` [Compound 598, 2-(4-ethylpiperazin-1-yl)-7-(tetrahydro-2H-pyran-4-ylmethyl)-6,7,8,9-tetrahydro-5H-pyrimido[4,5-d]azepine], the Ki under setting [3] is under 1000 nM. As to `CCN1CCN(c2ncc3c(n2)CCN(C2CCC2)CC3)CC1` [Compound 599, 7-cyclobutyl-2-(4-ethylpiperazin-1-yl)-6,7,8,9-tetrahydro-5H-pyrimido[4,5-d]azepine], under setting [3], the inhibition constant Ki is under 1000 nM.

Take `CC(=O)N1CCN(c2ncc3c(n2)CCN(C2CCC2)CC3)CC1` [Compound 600, 2-(4-acetylpiperazin-1-yl)-7-cyclobutyl-6,7,8,9-tetrahydro-5H-pyrimido[4,5-d]azepine]: the inhibition constant Ki under setting [3] is under 1000 nM. Regarding `CC(C)(C)OC(=O)N1CCN(c2ncc3c(n2)CCN(C2CCC2)CC3)CC1` [Compound 601, tert-butyl 4-(7-cyclobutyl-6,7,8,9-tetrahydro-5H-pyrimido[4,5-d]azepin-2-yl)piperazine-1-carboxylate], under setting [3], the Ki is under 1000 nM. Same read-out and setting: the figure for `FC(F)(F)CN1CCN(c2ncc3c(n2)CCN(C2CCC2)CC3)CC1` [Compound 602, 7-cyclobutyl-2-[4-(2,2,2-trifluoroethyl)piperazin-1-yl]-6,7,8,9-tetrahydro-5H-pyrimido[4,5-d]azepine] is under 1000 nM; for `CNC(=O)c1ccc(N2CCN(c3ncc4c(n3)CCN(CC3CCOCC3)CC4)CC2)nc1` [Compound 603, N-methyl-6-{4-[7-(tetrahydro-2H-pyran-4-ylmethyl)-6,7,8,9-tetrahydro-5H-pyrimido[4,5-d]azepin-2-yl]piperazin-1-yl}nicotinamide] it is under 1000 nM. Turning to `CNC(=O)c1ccc(N2CCN(c3ncc4c(n3)CCN(C3CCC3)CC4)CC2)nc1` [Compound 604, 6-[4-(7-cyclobutyl-6,7,8,9-tetrahydro-5H-pyrimido[4,5-d]azepin-2-yl]piperazin-1-yl]-N-methylnicotinamide], under setting [3], the inhibitory constant (Ki) was under 1000 nM. Regarding `c1ccc(CN2CCc3nc(N4CCN(C5CCC5)CC4)ncc3C2)cc1` [Compound 605, 6-benzyl-2-(4-cyclobutylpiperazin-1-yl)-5,6,7,8-tetrahydropyrido[4,3-d]pyrimidine], the inhibition constant (Ki) under setting [2] is under 1000 nM. The same measure, in the same setting: the same measure for `CCN1CCc2nc(N3CCN(C4CCC4)CC3)ncc2C1` [Compound 606, 2-(4-cyclobutylpiperazin-1-yl)-6-ethyl-5,6,7,8-tetrahydropyrido[4,3-d]pyrimidine]: under 1000 nM.

(Values after patent US20080051387A1, “TETRAHYDROPYRIDO[3,4-D]PYRIMIDINES AND RELATED ANALOGUES” (priority 2006, published 2008).)
